Results: US20150105252A1, “SUBSTITUTED PYRAZOLES AS HERBICIDES” (E I DU PONT DE NEMOURS AND COMPANY, priority 2013, published 2015)

Experiments:
common ragweed [1] = experiment: Test A postemergence; assay type: in vivo, Ambrosia elation
Excerpt: (§1) Seeds of plant species selected from barnyardgrass (Echinochloa crus-galli), kochia (Kochia scoparia), common ragweed (Ambrosia elation), Italian ryegrass (Lolium multiflorum), crabgrass, large (large crabgrass, Digitaria sanguinalis), foxtail, giant (giant foxtail, Setaria faberii), morningglory (Ipomoea spp.), pigweed (redroot pigweed, Amaranthus retroflexus), velvetleaf (Abutilon theophrasti), wheat (Triticum aestivum), and corn (Zea mays) were planted into a blend of loam soil and sand and treated preemergence with a directed soil spray using test chemicals formulated in a non-phytotoxic solvent mixture which included a surfactant.
(§2) At the same time, plants selected from these crop and weed species and also blackgrass (Alopecurus myosuroides), and galium (catchweed bedstraw, Galium aparine) were planted in pots containing the same blend of loam soil and sand and treated with postemergence applications of test chemicals formulated in the same manner. Plants ranged in height from 2 to 10 cm and were in the one- to two-leaf stage for the postemergence treatment. Treated plants and untreated controls were maintained in a greenhouse for approximately 10 days, after which time all treated plants were compared to untreated controls and visually evaluated for injury. Plant response ratings, summarized in Table A, are based on a 0 to 100 scale where 0 is no effect and 100 is complete control. A dash (-) response means no test result.

barnyardgrass [2] = experiment: Test A preemergence; assay type: in vivo, Echinochloa crus-galli; settings: preemergence; for Barnyardgrass plant response rating (0 to 100 scale, 0 is no effect, 100 is complete control): visual injury approx. 10 days after treatment
Summary of the method: (§3)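 After sowing in a sand–loam mix, pots received compound preemergence by directed soil spray, or postemergence once plants reached the one- to two-leaf stage (2–10 cm). Formulation contained surfactant in a non-phytotoxic solvent. Injury was scored visually after ~10 greenhouse days, 0–100 scale.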

foxtail, giant [3] = experiment: Test A preemergence; assay type: in vivo, Setaria faberii; settings: preemergence; for Foxtail, Giant plant response rating (0 to 100 scale): visual injury approx. 10 days after treatment
Summary of the method: as §3

foxtail, giant [4] = experiment: Test A postemergence; assay type: in vivo, Setaria faberii
Summary of the method: as §3

pigweed [5] = experiment: Test A postemergence; assay type: in vivo, Amaranthus retroflexus
Summary of the method: as §3

wheat = experiment: Test A postemergence; assay type: in vivo, Triticum aestivum
Summary of the method: as §3

galium = experiment: Test A postemergence; assay type: in vivo, Galium aparine
Summary of the method: as §3

kochia [6] = experiment: Test A postemergence; assay type: in vivo, Kochia scoparia
Summary of the method: as §3

blackgrass = experiment: Test A postemergence; assay type: in vivo, Alopecurus myosuroides
Excerpt: as §1, §2

common ragweed [7] = experiment: Test A preemergence; assay type: in vivo, Ambrosia elation; settings: for Common Ragweed plant response rating (0 to 100 scale): visual injury approx. 10 days after treatment
Excerpt: as §1, §2

sedge, umbrella = experiment: Test B flood; assay type: in vivo, Cyperus difformis; settings: 250 g ai/ha, visual rating on 0 to 100 scale (0 no effect, 100 complete control), 13 to 15 days
Summary of the method: (§4)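 Each compound is applied to the floodwater of pots holding 2-leaf seedlings, water standing 3 cm over the soil throughout. Plants stay in a greenhouse 13 to 15 days before visual scoring against controls from 0 (no effect) to 100 (complete control).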

Italian ryegrass [8] = experiment: Test A preemergence; assay type: in vivo, Lolium multiflorum; settings: for Italian Ryegrass plant response rating (0 to 100 scale): visual injury approx. 10 days after treatment
Excerpt: as §1, §2

Italian ryegrass [9] = experiment: Test A postemergence; assay type: in vivo, Lolium multiflorum
Summary of the method: as §3

ducksalad = experiment: Test B flood; assay type: in vivo, Heteranthera limosa; settings: 250 g ai/ha, visual rating on 0 to 100 scale (0 no effect, 100 complete control), 13 to 15 days
Summary of the method: as §4

rice = experiment: Test B flood; assay type: in vivo, Oryza sativa; settings: 250 g ai/ha, visual rating on 0 to 100 scale (0 no effect, 100 complete control), 13 to 15 days
Summary of the method: as §4

pigweed [10] = experiment: Test A preemergence; assay type: in vivo, Amaranthus retroflexus; settings: preemergence; for Pigweed plant response rating (0 to 100 scale): visual injury approx. 10 days after treatment
Summary of the method: as §3

corn = experiment: Test A postemergence; assay type: in vivo, Zea mays
Summary of the method: as §3

barnyardgrass [11] = experiment: Test B flood; assay type: in vivo, Echinochloa crus-galli; settings: 250 g ai/ha, visual rating on 0 to 100 scale (0 no effect, 100 complete control), 13 to 15 days
Summary of the method: as §4

kochia [12] = experiment: Test A preemergence; assay type: in vivo, Kochia scoparia; settings: for Kochia plant response rating (0 to 100 scale): visual injury approx. 10 days after treatment
Summary of the method: as §3

barnyardgrass [13] = experiment: Test A postemergence; assay type: in vivo, Echinochloa crus-galli
Summary of the method: as §3

[14] = Postemergence, 500 g ai/ha, 0 to 100 scale (0 no effect, 100 complete control)
[15] = postemergence, 125 g ai/ha, about 10 days, visual rating on 0 to 100 scale (0 no effect, 100 complete control)
[16] = 125 g ai/ha, visual injury, 0 to 100 scale, approx. 10 days
[17] = 500 g ai/ha, visual injury after approx. 10 days, 0 to 100 scale (0 no effect, 100 complete control)
[18] = Postemergence, 125 g ai/ha, 0 to 100 scale, 0 no effect, 100 complete control

Compound	Common Ragweed plant response rating (common ragweed [1]; [14])	Common Ragweed plant response rating (common ragweed [1]; [15])	Barnyardgrass plant response rating (barnyardgrass [2]; [17])	Foxtail, Giant plant response rating (foxtail, giant [3]; [17])	Foxtail, Giant plant response rating (foxtail, giant [4]; [14])	Foxtail, Giant plant response rating (foxtail, giant [4]; [15])	Pigweed plant response rating (pigweed [5]; [14])	Wheat plant response rating (wheat; [14])	Galium plant response rating (galium; [14])	Kochia plant response rating (kochia [6]; [14])	Blackgrass plant response rating (blackgrass; [14])	Common Ragweed plant response rating (common ragweed [7]; [17])	Plant response rating, Sedge, Umbrella (sedge, umbrella)	Italian Ryegrass plant response rating (Italian ryegrass [8]; [17])	Italian Ryegrass plant response rating (Italian ryegrass [9]; [14])	Plant response rating, Ducksalad (ducksalad)	Plant response rating, Rice (rice)	Corn plant response rating (corn; [14])	Plant response rating, Barnyardgrass (barnyardgrass [11])	Barnyardgrass plant response rating (barnyardgrass [13]; [14])	other results
CCc1cc(C(=O)NC2CC2)nn1Cc1cc(C(F)(F)F)no1 [Compound 124]	30	20	100	100	90	0	100	0	80	90	60	40	20	20	30	30	20	40	10	70	Barnyardgrass plant response rating (barnyardgrass [2]; [16]): 0; Foxtail, Giant plant response rating (foxtail, giant [3]; [16]): 20; Pigweed plant response rating (pigweed [5]; [15]): 30; Wheat plant response rating (wheat; [15]): 0; Galium plant response rating (galium; [15]): 10; Kochia plant response rating (kochia [6]; [15]): 50; Blackgrass plant response rating (blackgrass; [15]): 10; Common Ragweed plant response rating (common ragweed [7]; [16]): 10; Italian Ryegrass plant response rating (Italian ryegrass [8]; [16]): 0; Italian Ryegrass plant response rating (Italian ryegrass [9]; [15]): 10; Pigweed plant response rating (pigweed [10]; [16]): 20; Pigweed plant response rating (pigweed [10]; [17]): 100; Corn plant response rating (corn; [15]): 10; Kochia plant response rating (kochia [12]; [16]): 20; Kochia plant response rating (kochia [12]; [17]): 90; Barnyardgrass plant response rating (barnyardgrass [13]; [15]): 0
CCONC(=O)c1cc(CC)n(Cc2cc(OC(F)F)nn2C)n1 [Compound 207]	30	0	90	20	60	0	100	20	80	60	60	40	0	20	50	0	0	60	0	80	Barnyardgrass plant response rating (0 to 100 scale, 0 is no effect, 100 is complete control) (barnyardgrass [2]; 125 g ai/ha): 0; Foxtail, Giant plant response rating (0 to 100 scale) (foxtail, giant [3]; 125 g ai/ha): 0; Pigweed plant response rating (pigweed [5]; [18]): 60; Wheat plant response rating (wheat; [18]): 10; Galium plant response rating (galium; [18]): 40; Kochia plant response rating (kochia [6]; [18]): 30; Blackgrass plant response rating (blackgrass; [15]): 0; Common Ragweed plant response rating (0 to 100 scale) (common ragweed [7]; 125 g ai/ha): 0; Italian Ryegrass plant response rating (0 to 100 scale) (Italian ryegrass [8]; 125 g ai/ha): 0; Italian Ryegrass plant response rating (Italian ryegrass [9]; [18]): 0; Pigweed plant response rating (0 to 100 scale) (pigweed [10]; 125 g ai/ha): 50; Corn plant response rating (corn; [15]): 30; Kochia plant response rating (0 to 100 scale) (kochia [12]; 125 g ai/ha): 30; Barnyardgrass plant response rating (barnyardgrass [13]; [15]): 0
CCONC(=O)c1cc(CC)n(Cc2cc(C(F)(F)F)nn2C(C)C)n1 [Compound 208]	20	0	10	30	10	0	80	0	50	50	10	10	0	10	0	0	0	10	0	10	Barnyardgrass plant response rating (0 to 100 scale, 0 is no effect, 100 is complete control) (barnyardgrass [2]; 125 g ai/ha): 0; Foxtail, Giant plant response rating (0 to 100 scale) (foxtail, giant [3]; 125 g ai/ha): 0; Pigweed plant response rating (pigweed [5]; [18]): 40; Wheat plant response rating (wheat; [18]): 0; Galium plant response rating (galium; [18]): 20; Kochia plant response rating (kochia [6]; [18]): 20; Blackgrass plant response rating (blackgrass; [15]): 0; Common Ragweed plant response rating (0 to 100 scale) (common ragweed [7]; 125 g ai/ha): 0; Italian Ryegrass plant response rating (0 to 100 scale) (Italian ryegrass [8]; 125 g ai/ha): 0; Italian Ryegrass plant response rating (Italian ryegrass [9]; [18]): 0; Pigweed plant response rating (0 to 100 scale) (pigweed [10]; 125 g ai/ha): 20; Corn plant response rating (corn; [15]): 0; Kochia plant response rating (0 to 100 scale) (kochia [12]; 125 g ai/ha): 10; Barnyardgrass plant response rating (barnyardgrass [13]; [15]): 0
CCc1cc(C(=O)NC2CC2)nn1Cc1cc(OC(F)F)nn1C [Compound 211]	20		70	80	60		100	20	70	90	50	40	0	20	30	0	0	40	0	50	Common Ragweed plant response rating (common ragweed [1]; [18]): 0; Barnyardgrass plant response rating (0 to 100 scale, 0 is no effect, 100 is complete control) (barnyardgrass [2]; 125 g ai/ha): 0; Foxtail, Giant plant response rating (0 to 100 scale) (foxtail, giant [3]; 125 g ai/ha): 0; Foxtail, Giant plant response rating (foxtail, giant [4]; [18]): 0; Pigweed plant response rating (pigweed [5]; [18]): 70; Wheat plant response rating (wheat; [18]): 0; Galium plant response rating (galium; [18]): 20; Kochia plant response rating (kochia [6]; [18]): 80; Blackgrass plant response rating (blackgrass; [18]): 0; Common Ragweed plant response rating (0 to 100 scale) (common ragweed [7]; 125 g ai/ha): 0; Italian Ryegrass plant response rating (0 to 100 scale) (Italian ryegrass [8]; 125 g ai/ha): 0; Italian Ryegrass plant response rating (Italian ryegrass [9]; [18]): 0; Pigweed plant response rating (0 to 100 scale) (pigweed [10]; 125 g ai/ha): 50; Corn plant response rating (corn; [18]): 30; Kochia plant response rating (0 to 100 scale) (kochia [12]; 125 g ai/ha): 50; Barnyardgrass plant response rating (barnyardgrass [13]; [18]): 0
